This note sets out measurements from patent US6395286B1, “Cosmetic compositions containing anise extract and retinoids” (Unilever Home & Personal Care USA, division of Conopco, Inc., priority 1999, dated 2002).

The experiment has as its system CRABP-2 expression of fibroblasts. The experiment can be described thus: CRABP-2 protein expression in fibroblasts (Western blot, densitometric scanning). Format: cell-based, Human. The following applies: for CRABP-2 levels: 4 h anise pre-treatment, 48 h incubation, +/− SD of triplicates; for As % of control: control as 100%. The procedure: Dried […] seeds (Pimpinella anisum) was purchased from local markets and powdered in a dry grinder. The alcoholic extract of anise seed was prepared by stirring 1 gram of the dry anise seed powder in 10 ml of ethanol from the list of solvents given below for 4 to 24 hrs at room temperature. The extracts were clarified by filtration and centrifugation, to obtain a 10% extract of anise seed in the particular solvent. Human adult fibroblasts obtained from sun-protected inner arm of 25-30 year […] volunteer were used in this. Cells were grown in 1:1 DMEM/Hams F12 media containing 10% FBS, maintained at 37C in a 5% CO2 atmosphere under normal atmospheric oxygen tension. Third passage adult fibroblasts were grown in DMEM media with 10% FBS in 12-well plates at a seeding density of 40,000 cells/ml/well. The cells at 80% confluence were rinsed in serum free and phenol red free (PRF) DMEM media twice. Pre-treatment with anise seed extract for 4 hours was conducted and then dosed with retinoids and was incubated for 48 hours. After the incubation, the wells were washed twice with 1×PBS and the cell monolayer was harvested in 100 μl cell lysis buffer (contains 1×PBS, 1% TritonX, 0.5% sodium deoxycholate, 0.1% SDS containing protease inhibitor (10 mg/ml PMSF in isopropanol, 10 μl/ml). The suspension was spun at 14000 rpm for 10 minutes, the supernatant collected and an aliquot of this supernatant was used for protein quantification. Protein concentration was determined using Pierce protein kit. The remainder of 100 μl supernatant (cell lysate) was denatured in a mixture of 40 μl sample buffer (NOVEX) and 0.5% Beta mercaptoethanol (BME) and by boiling the sample for 5 minutes. Equal amount of protein was then loaded onto 16% Tris-glycine gels for protein analysis by SDS page and Western Immuno-blotting for CRABP-2 protein expression. To measure the levels of CRABP-2 in the fibroblasts prepared as described above, the cell supernatant was re-suspended in 4× sample buffer and 0.5% BME, boiled for 5 minutes and used for western blotting. Equal amounts of protein were loaded onto 16% Tris-glycine gels for CRABP-2 protein analysis by SDS page and Western Immuno-blotting. The gels were transferred to nitrocellulose blots and Western Blotting was carried out using monoclonal antibodies to CRABP-2 according to standard procedures. The CRABP-2 protein band was visualized in the Western Blots using the chemiluminescence system obtained from Santa Cruz Biotechnology (SantaCruz, Calif.). The bands in the film were quantitated by densitometric scanning, the data from triplicate samples were calculated as % of control and expressed in the following tables as % increase over control (with control as 100%) +/−SD of triplicates.
In general terms: A western blot detects proteins with antibodies after separation by electrophoresis.

Setting [1] is: Example 1: 100 nM retinoids and 0.1 μl of a 10% anise seed extract.
The mark [2] stands for this setting: Example 2: 100 nM retinoids and 1.0 μl of a 10% anise seed extract.
Setting [3] is: Example 3: 500 nM retinoids and 0.1 μl of a 10% anise seed extract.
Setting [4] is: Example 4: 500 nM retinoids and 1.0 μl of a 10% anise seed extract.

Consider `CCCCCCCCCCCCCCCC(=O)OC/C=C(C)/C=C/C=C(C)/C=C/C1=C(C)CCCC1(C)C` [Retinyl Palmitate], for which the CRABP-2 levels is reported as 1.12 +/− 0.15 under setting [1], 1.12 +/− 0.15 under setting [2], 0.83 +/− 0.5 under setting [3] and 0.83 +/− 0.5 under setting [4]. In addition, the “As % of control” value is, setting by setting: under setting [1], 262 +/− 37 % of control; under setting [2], 262 +/− 37 % of control; under setting [3], 193 % of control; under setting [4], 193 % of control.

In the case of `CC1=C(/C=C/C(C)=C/C=C/C(C)=C/CO)C(C)(C)CCC1` [Retinol], the CRABP-2 levels by setting is: under setting [1], 1.36 +/− 0.17; under setting [2], 1.36 +/− 0.17; under setting [3], 0.66 +/− 0.19; under setting [4], 0.66 +/− 0.19. Also, the “As % of control” value is, setting by setting: under setting [1], 317 +/− 39 % of control; under setting [2], 317 +/− 39 % of control; under setting [3], 154 +/− 44 % of control; under setting [4], 154 +/− 44 % of control.

Turning to `CC(=O)OC/C=C(C)/C=C/C=C(C)/C=C/C1=C(C)CCCC1(C)C` [Retinyl acetate], the CRABP-2 levels under setting [1] is 2.38 +/− 0.81, the CRABP-2 levels under setting [2] is listed as 2.38 +/− 0.81, the CRABP-2 levels under setting [3] is on record as 1.02 +/− 0.56 and the CRABP-2 levels under setting [4] is reported as 1.02 +/− 0.56. Further, the “As % of control” value under setting [1] is reported as 553 % of control, the “As % of control” value under setting [2] is recorded as 553 % of control, the “As % of control” value under setting [3] is 237 % of control and the “As % of control” value under setting [4] is reported as 237 % of control.

For the compound `CCCCC/C=C\C/C=C\CCCCCCCC(=O)OC/C=C(C)/C=C/C=C(C)/C=C/C1=C(C)CCCC1(C)C` [Retinyl linoleate], the CRABP-2 levels under setting [1] is 1.23 +/− 0.28, the CRABP-2 levels under setting [2] is on record as 1.23 +/− 0.28, the CRABP-2 levels under setting [3] is on record as 0.99 +/− 0.13 and the CRABP-2 levels under setting [4] is reported as 0.99 +/− 0.13. The “As % of control” value is listed as 286 +/− 65 % of control under setting [1], 286 +/− 65 % of control under setting [2], 231 +/− 30 % of control under setting [3] and 231 +/− 30 % of control under setting [4].
